Read-outs that look alike come from different tables or passages of the source.
Key:
[1] = molecular target: T1, cyclooxygenase-2 (Homo sapiens, UniProt P35354); assay: Inhibition of cyclooxygenase-2 activity (PGE2 synthesis in response to arachidonic acid, radioimmunoassay; whole cell and microsomal assays); assay type: cell-based; details: for IC50: read-out: COX-2 IC50
T1 construct: Cells used for whole cell assays, and from which microsomes were prepared for microsomal assays, were human osteosarcoma 143 cells; endogenous in cells; host or cells: human osteosarcoma 143 cells (whole cells or microsomes)
T1 sequence (P35354 18-604): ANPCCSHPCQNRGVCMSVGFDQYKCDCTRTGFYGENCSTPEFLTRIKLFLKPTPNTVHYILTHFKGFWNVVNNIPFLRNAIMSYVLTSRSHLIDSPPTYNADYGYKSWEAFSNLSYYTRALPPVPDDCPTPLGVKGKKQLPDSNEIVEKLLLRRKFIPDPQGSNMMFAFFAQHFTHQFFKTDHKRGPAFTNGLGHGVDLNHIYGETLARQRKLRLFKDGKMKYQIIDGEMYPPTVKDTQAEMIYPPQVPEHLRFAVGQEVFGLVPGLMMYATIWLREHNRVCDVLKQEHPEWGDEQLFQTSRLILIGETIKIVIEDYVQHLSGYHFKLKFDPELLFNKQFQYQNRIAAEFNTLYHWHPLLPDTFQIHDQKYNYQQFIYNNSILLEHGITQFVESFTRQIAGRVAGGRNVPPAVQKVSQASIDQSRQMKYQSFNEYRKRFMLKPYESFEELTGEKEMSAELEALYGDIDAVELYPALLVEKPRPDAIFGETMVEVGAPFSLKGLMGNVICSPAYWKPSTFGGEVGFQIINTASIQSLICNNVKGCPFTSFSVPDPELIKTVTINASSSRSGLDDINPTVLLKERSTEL
Method: (§1) Compounds were tested as inhibitors of cyclooxygenase activity in whole cell and microsomal cyclooxygenase assays. Both of these assays measured prostaglandin E2 synthesis in response to arachidonic acid, using a radioimmunoassay. Cells used for whole cell assays, and from which microsomes were prepared for microsomal assays, were human osteosarcoma 143 cells (which specifically express cyclooxygenase-2) and human U-937 cells (which specifically express cyclooxygenase-1). In these assays, 100% activity is defined as the difference between prostaglandin E2 synthesis in the absence and presence of arachidonate addition.
(§2) In the assay, inhibition is determined by measuring the amount of prostaglandin E2 (PGE2) synthesized in the presence of arachidonic acid, cyclooxygenase-1 or cyclooxygenase-2 and a putative inhibitor.

[2] = molecular target: T2, cyclooxygenase-1 (Homo sapiens, UniProt P23219); assay: Inhibition of cyclooxygenase-1 activity (PGE2 synthesis in response to arachidonic acid, radioimmunoassay; whole cell and microsomal assays); assay type: cell-based; details: for COX-1 inhibition (result in words, with concentration): human U-937 cells, concentration stated in the cell; for IC50: table of prepared examples, read-out: COX-1 IC50
T2 construct: human U-937 cells (which specifically express cyclooxygenase-1); endogenous in cells; host or cells: human U-937 cells (whole cells or microsomes)
T2 sequence (P23219 24-599): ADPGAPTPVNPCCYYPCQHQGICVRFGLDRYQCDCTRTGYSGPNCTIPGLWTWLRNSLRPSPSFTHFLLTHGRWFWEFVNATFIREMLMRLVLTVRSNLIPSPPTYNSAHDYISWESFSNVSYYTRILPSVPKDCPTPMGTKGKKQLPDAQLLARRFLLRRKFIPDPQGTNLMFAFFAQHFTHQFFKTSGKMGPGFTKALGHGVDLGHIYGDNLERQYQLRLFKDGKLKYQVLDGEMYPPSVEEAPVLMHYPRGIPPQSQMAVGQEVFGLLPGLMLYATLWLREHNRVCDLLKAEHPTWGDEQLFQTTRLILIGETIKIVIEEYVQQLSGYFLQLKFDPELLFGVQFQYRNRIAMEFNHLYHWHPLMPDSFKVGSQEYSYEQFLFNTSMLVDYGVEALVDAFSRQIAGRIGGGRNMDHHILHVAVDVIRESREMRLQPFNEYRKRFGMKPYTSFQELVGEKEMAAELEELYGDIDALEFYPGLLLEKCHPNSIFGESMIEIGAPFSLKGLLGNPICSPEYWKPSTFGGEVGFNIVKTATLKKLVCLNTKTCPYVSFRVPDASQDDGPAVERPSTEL
Method: as §1, §2

[3] = system: paw edema; assay: Rat paw edema assay (carrageenan); assay type: in vivo; details: po; for Rat Paw EDEMA ED30: 1 hr before carrageenan, paw volume 3 hr later; for Rat Paw Edema ED50: table of prepared examples
Method: One hr later, a line was drawn using a permanent marker at the level above the ankle in one hind paw to define the area of the paw to be monitored. The paw volume (VO) was measured using a plethysmometer (Ugo-Basile, Italy) based on the principle of water displacement. […] The animals were sacrificed by CO2 aphyxiation and the absence or presence of stomach lesions scored. Data were compared with the vehicle-control values and percent inhibition calculated. […] At least 6 animals were used at each concentration All treatment groups were coded to eliminate observer bias.

[4] = Rat plasma levels; assay type: in vivo
[5] = Monkey pharmacokinetics (Cmax, t1/2); assay type: in vivo

Structure (SMILES): CS(=O)(=O)Nc1cc2c(cc1Oc1ccccc1)C(=O)CC2 [Compound 1, reference compound]
- IC50 ([1]; table of prepared examples): 30 nM

Structure (SMILES): CS(=O)(=O)Nc1cc2c(cc1Oc1ccc(Br)cc1)C(=O)CC2 [Compound 2]
- IC50 ([1]; table of prepared examples): 9 nM

Structure (SMILES): CS(=O)(=O)Nc1cc2c(cc1Oc1ccc(F)cc1F)C(=O)CC2 [Compound 3, Flosulide, reference compound]
- COX-1 inhibition (result in words, with concentration) [2]: Inactive at 50 μM
- IC50 [2]: > 50000 nM
- Rat Paw EDEMA ED30 [3]: 1.1 ± .4 mpk
- Rat Paw Edema ED50 [3]: 0.62 mpk
- Rat Plasma Levels @ 1 hr ([4]; 20 mpk): 48 @ 20 mpk μg/ml
- Monkey Cmax ([5]; 10 mpk): 17 @ 10 mpk μg/ml
- t½ Monkey (n = 2) (Estimated) ([5]; n = 2, estimated): <4 h

Structure (SMILES): CS(=O)(=O)Nc1cc2c(cc1Oc1ccc(Cl)cc1Cl)C(=O)CC2 [Compound 4, 5-Methanesulfonamido-6-(2,4-dichlorophenoxy)-1-indanone]
- IC50 ([1]; human osteosarcoma 143 cells, PGE2 synthesis): 8 nM
- COX-1 inhibition (result in words, with concentration) [2]: Inactive at 100 μM
- IC50 [2]: > 100000 nM
- Rat Paw EDEMA ED30 [3]: 0.22 mpk
- Rat Paw Edema ED50 [3]: 0.22 mpk

Structure (SMILES): CS(=O)(=O)Nc1cc2c(cc1Sc1ccccc1)C(=O)CC2 [Compound 6]
- IC50 ([1]; table of prepared examples): 50 nM
- IC50 [2]: > 100000 nM
- Rat Paw Edema ED50 [3]: 0.16 mpk

Structure (SMILES): CS(=O)(=O)Nc1cc2c(cc1Sc1ccc(F)cc1)C(=O)CC2 [Compound 8]
- IC50 ([1]; table of prepared examples): 100 nM

Structure (SMILES): CS(=O)(=O)Nc1cc2c(cc1Sc1ccc(Cl)cc1)C(=O)CC2 [Compound 9]
- IC50 ([1]; table of prepared examples): 100 nM

Structure (SMILES): CS(=O)(=O)Nc1cc2c(cc1Sc1ccc(I)cc1)C(=O)CC2 [Compound 11]
- IC50 ([1]; table of prepared examples): 10 nM

Structure (SMILES): CS(=O)(=O)Nc1cc2c(cc1Sc1ccc(F)cc1F)C(=O)CC2 [Compound 12, 5-Methanesulfonamido-6-(2,4-difluorophenylthio)-1-indanone]
- COX-2 % INHB ([1]; CONC 10 nM): 43%
- COX-2 % INHB ([1]; CONC 100 nM): 87%
- COX-2 % INHB ([1]; CONC 1000 nM): 91%
- IC50 [2]: > 10000 nM
- Rat Paw EDEMA ED30 [3]: 0.3 ± .1 mpk
- Rat Paw Edema ED50 [3]: 0.3 mpk
- Rat Plasma Levels @ 1 hr ([4]; 10 mpk): 70 @ 10 mpk μg/ml
- Cmax ([5]; in vivo, 5 mg/kg, 5 mpk): 35000 ng/mL
- half-life ([5]; in vivo, n = 2, estimated, read-out: t½ Monkey (n = 2) (Estimated)): > 9 h

Structure (SMILES): CS(=O)(=O)Nc1cc2c(cc1Sc1ccc(Cl)cc1F)C(=O)CC2 [Compound 14]
- IC50 ([1]; table of prepared examples): 13 nM

Structure (SMILES): CS(=O)(=O)Nc1cc2c(cc1Sc1ccc(F)cc1Cl)C(=O)CC2 [Compound 16]
- IC50 ([1]; table of prepared examples): 11 nM

Structure (SMILES): Cc1ccccc1Sc1cc2c(cc1NS(C)(=O)=O)CCC2=O [Compound 19]
- IC50 ([1]; table of prepared examples): 100 nM

Structure (SMILES): Cc1ccc(Sc2cc3c(cc2NS(C)(=O)=O)CCC3=O)cc1 [Compound 20]
- IC50 ([1]; table of prepared examples): 50 nM

Structure (SMILES): CS(=O)(=O)Nc1cc2c(cc1Sc1ccc(C(F)(F)F)cc1)C(=O)CC2 [Compound 22]
- IC50 ([1]; table of prepared examples): 50 nM

Structure (SMILES): C=Cc1ccc(Sc2cc3c(cc2NS(C)(=O)=O)CCC3=O)cc1 [Compound 24]
- IC50 ([1]; table of prepared examples): 100 nM

Structure (SMILES): COc1ccc2c(c1)c(CC(=O)O)c(C)n2C(=O)c1ccc(Cl)cc1 [INDOMETHACIN, Indomethacin, reference compound]
- Rat Paw EDEMA ED30 [3]: 1.1 ± .3 mpk

Reference: patent publication USRE38103E1, “5-methanesulfonamido-1-indanones as an inhibitor of cyclooxygenase-2” (Merck Frosst Canada & Co., priority 1992, dated 2003)
